Measurements as given in PubChem BioAssay (NCI).
Where “and” joins values, the source holds several entries; their conditions need not be identical. Identical values can stand only once.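 Where inhibition never reached the appropriate level, the endpoint shown equals the highest concentration tested. Otherwise, values were interpolated linearly from a five-concentration, 48-hour dose response in 96-well plates. The concentration for 50% growth inhibition is given as GI50. TGI: concentration producing complete growth inhibition.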

Key:
Assay in all cases: NCI anticancer screen, dose series, 48 h
786-0 renal = test system: 786-0 renal
A498 renal = test system: A498 renal
A549 NSCLC = test system: A549 NSCLC
ACHN renal = test system: ACHN renal
BT-549 breast = test system: BT-549 breast
CAKI-1 renal = test system: CAKI-1 renal
CCRF-CEM leukemia = test system: CCRF-CEM leukemia
COLO 205 colon = test system: COLO 205 colon
DU-145 prostate = test system: DU-145 prostate
EKVX NSCLC = test system: EKVX NSCLC
HCC-2998 colon = test system: HCC-2998 colon
HCT-116 colon = test system: HCT-116 colon
HCT-15 colon = test system: HCT-15 colon
HL-60(TB) leukemia = test system: HL-60(TB) leukemia
HOP-62 NSCLC = test system: HOP-62 NSCLC
HOP-92 NSCLC = test system: HOP-92 NSCLC
HS 578T breast = test system: HS 578T breast
HT29 colon = test system: HT29 colon
IGROV1 ovarian = test system: IGROV1 ovarian
K-562 leukemia = test system: K-562 leukemia
KM12 colon = test system: KM12 colon
LOX IMVI melanoma = test system: LOX IMVI melanoma
M14 melanoma = test system: M14 melanoma
MALME-3M melanoma = test system: MALME-3M melanoma
MCF7 breast = test system: MCF7 breast
MDA-MB-231 breast = test system: MDA-MB-231 breast
MDA-MB-435 = test system: MDA-MB-435
MOLT-4 leukemia = test system: MOLT-4 leukemia
NCI-H226 lung = test system: NCI-H226 lung
NCI-H23 lung = test system: NCI-H23 lung
NCI-H460 lung = test system: NCI-H460 lung
NCI-H522 lung = test system: NCI-H522 lung
NCI/ADR-RES ovarian = test system: NCI/ADR-RES ovarian
OVCAR-3 ovarian = test system: OVCAR-3 ovarian
OVCAR-4 ovarian = test system: OVCAR-4 ovarian
OVCAR-5 ovarian = test system: OVCAR-5 ovarian
OVCAR-8 ovarian = test system: OVCAR-8 ovarian
PC-3 prostate = test system: PC-3 prostate
RPMI-8226 leukemia = test system: RPMI-8226 leukemia
RXF 393 renal = test system: RXF 393 renal
SF-268 CNS = test system: SF-268 CNS
SF-295 CNS = test system: SF-295 CNS
SF-539 CNS = test system: SF-539 CNS
SK-MEL-2 melanoma = test system: SK-MEL-2 melanoma
SK-MEL-28 melanoma = test system: SK-MEL-28 melanoma
SK-OV-3 ovarian = test system: SK-OV-3 ovarian
SN12C renal = test system: SN12C renal
SNB-19 CNS = test system: SNB-19 CNS
SNB-75 CNS = test system: SNB-75 CNS
SR leukemia = test system: SR leukemia
SW-620 colon = test system: SW-620 colon
T-47D breast = test system: T-47D breast
TK-10 renal = test system: TK-10 renal
U251 CNS = test system: U251 CNS
UACC-257 melanoma = test system: UACC-257 melanoma
UACC-62 melanoma = test system: UACC-62 melanoma
UO-31 renal = test system: UO-31 renal

SMILES: CC(C)c1[nH]nc2c(NCc3ccc(-c4ccccn4)cc3)nc(SCCN)nc12
- GI50 (786-0 renal): 143 nM and 327 nM
- GI50 (A498 renal): 30.6 nM and 30.2 nM
- TGI (A498 renal): 82.6 nM and 87.6 nM
- GI50 (A549 NSCLC): 30.6 nM and 15.9 nM
- TGI (A549 NSCLC): 12200 nM
- GI50 (ACHN renal): 273 nM and 286 nM
- TGI (ACHN renal): 4700 nM
- GI50 (BT-549 breast): 32.2 nM and 67 nM
- TGI (BT-549 breast): 168 nM and 642 nM
- GI50 (CAKI-1 renal): 2470 nM and 2840 nM
- TGI (CAKI-1 renal): 14800 nM
- GI50 (CCRF-CEM leukemia): 9.78 nM
- TGI (CCRF-CEM leukemia): 15100 nM
- TGI (COLO 205 colon): 34.2 nM
- GI50 (DU-145 prostate): 38.9 nM and 41.6 nM
- TGI (DU-145 prostate): 11800 nM
- GI50 (EKVX NSCLC): 32.8 nM and 55.7 nM
- TGI (EKVX NSCLC): 1520 nM and 2620 nM
- GI50 (HCC-2998 colon): 25 nM
- TGI (HCC-2998 colon): 1080 nM
- GI50 (HCT-116 colon): 23.3 nM and 19.6 nM
- TGI (HCT-116 colon): 10600 nM
- GI50 (HCT-15 colon): 672 nM and 683 nM
- TGI (HCT-15 colon): 10900 nM
- GI50 (HL-60(TB) leukemia): 4.69 nM
- TGI (HL-60(TB) leukemia): 44.3 nM
- GI50 (HOP-62 NSCLC): 24.7 nM and 20.6 nM
- TGI (HOP-62 NSCLC): 604 nM and 187 nM
- GI50 (HOP-92 NSCLC): 16.9 nM and 22.2 nM
- GI50 (HS 578T breast): 15.1 nM
- GI50 (HT29 colon): 5.03 nM
- TGI (HT29 colon): 10100 nM
- GI50 (IGROV1 ovarian): 21.5 nM and 23.1 nM
- TGI (IGROV1 ovarian): 12400 nM
- GI50 (K-562 leukemia): 19.8 nM
- TGI (K-562 leukemia): 10200 nM
- GI50 (KM12 colon): 17.5 nM and 12.6 nM
- TGI (KM12 colon): 10300 nM
- GI50 (LOX IMVI melanoma): 5.53 nM
- TGI (LOX IMVI melanoma): 2620 nM and 1650 nM
- GI50 (M14 melanoma): 15.5 nM and 18.1 nM
- TGI (M14 melanoma): 151 nM and 1160 nM
- GI50 (MALME-3M melanoma): 16 nM
- TGI (MALME-3M melanoma): 59.8 nM
- GI50 (MCF7 breast): 4.01 nM
- TGI (MCF7 breast): 2280 nM and 10200 nM
- GI50 (MDA-MB-231 breast): 4.92 nM
- TGI (MDA-MB-231 breast): 205 nM and 212 nM
- GI50 (MDA-MB-435): 4.22 nM
- TGI (MDA-MB-435): 1080 nM and 1070 nM
- GI50 (MOLT-4 leukemia): 5.05 nM
- TGI (MOLT-4 leukemia): 169 nM and 102 nM
- GI50 (NCI-H226 lung): 40.4 nM and 27.9 nM
- TGI (NCI-H226 lung): 98.5 nM
- GI50 (NCI-H23 lung): 21.2 nM and 18.1 nM
- TGI (NCI-H23 lung): 797 nM and 95.1 nM
- GI50 (NCI-H460 lung): 38.1 nM and 35.6 nM
- TGI (NCI-H460 lung): 2050 nM and 10000 nM
- GI50 (NCI-H522 lung): 3.26 nM
- TGI (NCI-H522 lung): 147 nM
- GI50 (NCI/ADR-RES ovarian): 4870 nM and 3560 nM
- TGI (NCI/ADR-RES ovarian): 21300 nM
- GI50 (OVCAR-3 ovarian): 18.9 nM and 16.2 nM
- TGI (OVCAR-3 ovarian): 10100 nM
- GI50 (OVCAR-4 ovarian): 5.85 nM
- TGI (OVCAR-4 ovarian): 394 nM and 1410 nM
- GI50 (OVCAR-5 ovarian): 47.2 nM and 38.5 nM
- TGI (OVCAR-5 ovarian): 12800 nM
- GI50 (OVCAR-8 ovarian): 38.7 nM and 24.3 nM
- TGI (OVCAR-8 ovarian): 12900 nM
- GI50 (PC-3 prostate): 25.7 nM
- TGI (PC-3 prostate): 4110 nM and 12300 nM
- GI50 (RPMI-8226 leukemia): 15.1 nM and 16.7 nM
- TGI (RPMI-8226 leukemia): 84.7 nM and 83.1 nM
- GI50 (RXF 393 renal): 16.9 nM
- TGI (RXF 393 renal): 53.2 nM
- GI50 (SF-268 CNS): 6.84 nM
- TGI (SF-268 CNS): 7120 nM and 5240 nM
- GI50 (SF-295 CNS): 39.1 nM and 42.5 nM
- TGI (SF-295 CNS): 712 nM and 2030 nM
- GI50 (SF-539 CNS): 31.4 nM and 27.2 nM
- TGI (SF-539 CNS): 97.9 nM and 81.1 nM
- GI50 (SK-MEL-2 melanoma): 30.6 nM
- TGI (SK-MEL-2 melanoma): 105 nM
- GI50 (SK-MEL-28 melanoma): 19.7 nM and 12.4 nM
- TGI (SK-MEL-28 melanoma): 171 nM and 239 nM
- GI50 (SK-OV-3 ovarian): 43.3 nM and 27.6 nM
- TGI (SK-OV-3 ovarian): 11400 nM
- GI50 (SN12C renal): 23.8 nM
- TGI (SN12C renal): 185 nM
- GI50 (SNB-19 CNS): 17.3 nM and 14.2 nM
- TGI (SNB-19 CNS): 11800 nM
- GI50 (SNB-75 CNS): 5.87 nM
- TGI (SNB-75 CNS): 33.1 nM and 44.8 nM
- GI50 (SR leukemia): 12.6 nM
- TGI (SR leukemia): 2030 nM
- GI50 (SW-620 colon): 12 nM
- GI50 (T-47D breast): 18.2 nM
- TGI (T-47D breast): 89 nM
- GI50 (TK-10 renal): 155 nM
- TGI (TK-10 renal): 10100 nM
- GI50 (U251 CNS): 28 nM and 20.5 nM
- TGI (U251 CNS): 11500 nM
- GI50 (UACC-257 melanoma): 41.4 nM and 23.5 nM
- TGI (UACC-257 melanoma): 87.5 nM
- GI50 (UACC-62 melanoma): 19.1 nM
- TGI (UACC-62 melanoma): 48.6 nM
- GI50 (UO-31 renal): 186 nM and 402 nM
